This passage reports melting point results from a melting point compilation (Tetko et al.; mined from patent text by program, amines drawn as free bases though some values may be those of a salt).

SMILES strings stand for the structures.

Regarding `CS(=O)(=O)c1ccc(-c2cc(C=O)sc2-c2ccc(F)cc2)cc1`, the melting point fell in the range of 165 to 166 °C.
Under `Nc1nc(Cl)cc(Oc2ccc3c(C(=O)Nc4cccc(C(F)(F)F)c4)cnn3c2)n1` stands 219 to 221 °C; under `NC(=O)CCC(C(N)=O)c1ccc(F)cc1` (stereo not given), 154 to 157 °C; under `CCCN(CCC)C1CCc2c(ccc3[nH]cc(C(C)=O)c23)C1` (stereo not given), 196 to 197 °C.
Under `c1coc(-c2ccc3c(n2)[nH]c2ccccc23)c1` stands 208 to 210 °C; under `O=C(Nc1cc(S(=O)(=O)N2CCC(O)C2)sc1Cl)c1cnn2c(C(F)(F)F)cc(-c3ccc(C(F)(F)F)cc3)nc12` (racemic), 270 °C; under `CN1CCN2c3ccccc3Cn3cccc3C2C1` (stereo not given), 98 to 100 °C.
With `COC(=O)c1cnc(C(=O)OC)c(Cl)c1` the figure was 36 to 38 °C; with `COc1ccc(/C=C/C(=O)C2C(=O)CC(c3ccc(OC)cc3)C([N+](=O)[O-])C2c2cccc([N+](=O)[O-])c2)cc1` (stereo not given), 204 to 206 °C.
In turn, `CS(=O)(=O)CC(=O)NC(=O)N1CC1C#N` (stereo not given) registered a melting point of 126 to 128 °C.
`CC(=O)N1CCN=C1Nc1ccnn1-c1ccc(F)cc1`: the melting point is 162 to 164 °C.
With `CC(=O)C1CCC2C3CCC4=CC(=O)CCC4(CO)C3CCC12C` (stereo not given) the figure was 165 to 168 °C; with `Cc1cc(C#N)c2ccccn12`, 98 to 100 °C.
`COC(=O)CNc1ccc(CNC(=O)C2Cc3ccccc3N2S(=O)(=O)c2ccc(-c3cccc(C(F)(F)F)c3)cc2)cc1` (stereo not given) registered a melting point of 85 °C.
Under `O=C(O)Cc1ccc2c(c1)C(=O)c1cc(C(F)(F)F)ccc1CO2` stands 152 to 155 °C; under `Clc1nc2cc3c(cc2s1)OCO3`, 131 to 132 °C.
Under `CC(=O)NC1(C)CC(C)(C)CC(C)(C)C1` stands 110 °C; under `CNC(=O)c1ccc(-c2n[nH]c3c2Cc2ccccc2-3)cc1`, 182 to 188 °C; under `CC(C#N)(CCC(=O)O)SC(=S)c1ccccc1` (stereo not given), 97 to 99 °C.
With `Nc1sc2c(c1C(=O)c1ccc3ccccc3c1)CCC2` the figure was 178 to 180 °C; with `Cc1nc(N2CCN(CC3(C#N)C=CC=CC3)C2=O)sc1C(=O)NCc1ccccc1` (stereo not given), 176 to 178 °C.
In turn, `CC(=O)Nc1ccc(C#CCCN2CC=C(c3ccccc3)CC2)nc1` showed a melting point of 158 to 160 °C.
`CCn1nnnc1Cc1ccc([N+](=O)[O-])cc1` displayed a melting point of 104 to 105 °C.
With `C=CC(=O)N1CCSC1c1cc(C(C)(C)C)c(O)c(C(C)(C)C)c1` (stereo not given) the figure was 147 to 149 °C; with `CCOC(=O)CCC1OC(=O)C(O)=C1c1ccccc1` (stereo not given), 114 to 116 °C.
With `CCc1nc2c(cnn2CC)c(NC2CCOCC2)c1CNC(=O)c1cccc(C(=O)NCc2ccc(Cl)c(Br)c2)c1` the figure was 115 to 117 °C.
With `CC(C)(C)C(=NO)Nc1ccc(Cl)nn1` the figure was 128 to 130 °C; with `COC(=O)c1cc2c(c(OC)c1Br)OCO2`, 85.5 to 86 °C.
Consider `CC(C)(C)OC(=O)N1CCC(c2ccc(COc3ccc(-n4cncn4)cc3)nc2)CC1`, for which the melting point lay within 147 to 150 °C.
In turn, `CCOC(=O)C(=O)N(c1ccccc1)c1cc(OC)c([N+](=O)[O-])cc1OC` came in with a melting point of 146 to 147 °C.
For the compound `[N-]=[N+]=NS(=O)(=O)c1cccc(C(=O)O)c1`, the melting point fell in the range of 122 to 127 °C.
Under `Nc1ccc(C(=O)N2CCNC(=O)C2c2cccs2)cc1` (stereo not given) stands 181 to 182 °C.
Compound `COc1cccc(C(=O)Nc2ccc(S(N)(=O)=O)cc2)c1SSc1c(OC)cccc1C(=O)Nc1ccc(S(N)(=O)=O)cc1` registered a melting point of 188 to 189 °C.
With `CC(=O)ON1CC(NC(=O)OCc2ccccc2)C1=O` (stereo not given) the figure was 130 to 131 °C; with `COC(=O)c1cc2c(Sc3ccc(C)cc3)cncc2s1`, 116 to 119 °C; with `N[C@@H](COc1cccc(Cl)n1)c1ccccc1`, 56 to 57 °C.
`Cn1nnnc1SCCCS(=O)(=O)c1ccccn1` came in with a melting point of 98.5 to 101 °C.
With `COc1ccc(Cc2nnc3c4ccccc4c(Nc4cccc(-c5nnn(C)n5)c4)nn23)cc1` the figure was 262 to 264 °C.
Under `COc1cc2c3c(cccc3c1N1CCC(N)C1)C(=O)N(O)C2=O` (stereo not given) stands 217 to 222 °C.
Under `Clc1ccc(OCc2noc(-c3ccccc3)n2)cc1` stands 96 to 102 °C; under `Cc1cccc(-c2[nH]c(C(C)C)nc2-c2cccc(-c3cccc(NS(C)(=O)=O)c3)c2)n1`, 108 to 112 °C.
Take `O=C(O)c1ncn2c1c(=O)[nH]c1ccccc12`: the melting point was greater than 300 °C.
With `CCOC(=O)c1cnc(-c2ccc(C(F)(F)F)cc2)s1` the figure was 98 to 110 °C; with `COc1ccc2cc(NCc3ccc(OCc4ccccc4)cc3)ccc2c1`, 139 to 141 °C; with `O=[N+]([O-])c1ccc2oc(CO)cc2c1`, 115 to 116 °C.
With `Cn1c(C(F)(F)F)cc(=O)n(-c2ccc(Cl)c(C=CC#N)c2)c1=O` the figure was 263 to 265 °C; with `Cc1cn(C(C)C(=O)N(C)C)nc1-c1ccco1` (stereo not given), 93 to 95 °C; with `C=CC(=O)NC(C(=O)OCC)C(=O)OCC`, 105 to 106 °C.
With `O=[N+]([O-])c1ccc2c(ccn2CCCCl)c1` the figure was 74 to 76 °C; with `CCC(CC)/C(N)=C(\C#N)C(=O)OC(C)C`, 140 °C.
In turn, `Cc1ccc(-c2cc3ncnc(Nc4ccc5[nH]ccc5c4)c3s2)cc1` registered a melting point of 200 to 220 °C.
With `CC1(C)CC(C)(C)CC(CCC(=O)O)(NC(=O)CCl)C1` the figure was 130 to 131 °C; with `Cn1c(C(F)(F)F)cc(=O)n(-c2cc(S(=O)(=O)n3cccn3)c(Cl)cc2F)c1=O`, 172 °C.
With `Cc1nc2c(o1)CCc1ccccc1C2=O` the figure was 174 to 176 °C.
Under `CC(=O)Nc1cc2c3c(c1)[nH]c(=O)n3C[C@H](C)N(CC1CC1)C2` stands 244 °C; under `CCCc1c(OC(=S)N(C)C)ccc2c(C)c(CC(=O)OC)c(=O)oc12`, 172 to 173 °C; under `c1ccc(-c2ncc3[nH]c4c(c3n2)CCCC4)cc1`, 197 to 198 °C.
Consider `NC(=O)Cn1ccc2cccc(NC(c3ccc4c(cnn4-c4ccc(F)cc4)c3)C(F)(F)F)c21` (stereo not given), for which the melting point is 105 °C.
The compound `COc1ccc(CO)nc1I` came in with a melting point of 106 to 108 °C.
Turning to `CS(=O)(=O)c1ccc(-c2cnn(CCC(F)=C(F)F)c(=O)c2-c2ccc(F)cc2)cc1`, the melting point is 131 to 132 °C.
With `Cc1nc(CN2C(=O)COc3cc(N)ccc32)no1` the figure was 146 to 148 °C; with `O=C1CN(c2ncc3ncnc(Nc4ccc(F)c(Cl)c4)c3n2)CCN1`, 244 to 246 °C; with `COC1(c2ccc(C)cc2)CCC(=NO)CC1` (stereo not given), 114 to 116 °C.
On to `CCOC(=O)c1cc2c3n(ccc-2n1)C([N+](=O)[O-])C(C)=N3` (stereo not given), for which the melting point was 300 to 302 °C.
With `CCC(O)(CC)c1cc(Br)ccc1N` the figure was 64 to 66 °C.
Under `CCCCC1=N/C(=C\c2c[nH]c3ncc(Cl)cc23)C(=O)N1C` stands 295 to 300 °C; under `CN(CCN1CCC(Nc2nc3ccccc3n2Cc2ccc(F)cc2)CC1)c1nccs1`, 143 °C; under `O=C1CCC(c2ccc3c(c2)OCO3)CC1`, 92 to 93.5 °C.
Consider `COc1ccc(-n2cnc3c(O)nc4ccccc4c32)cc1`, for which the melting point is greater than 300 °C.
`COc1ccc(S(=O)(=O)C2(CCCC#Cc3ccc(Cl)cc3)CC(=O)NC2=O)cc1` (stereo not given): the melting point lay within 160 to 162 °C.
Under `CC(Cn1ncnn1)n1nnc2cc3c(=O)n(C4CCC4)nnc3cc2c1=O` (stereo not given) stands 152 to 154 °C.
The compound `CCCCc1c(/C=C/C(=O)Oc2ccc([N+](=O)[O-])cc2)cc(OC)c2ccccc12` gave a melting point of 122 °C.
Under `ClCc1coc(-c2cccc(OCc3ccccc3)c2)n1` stands 49 to 50 °C; under `CCN(CC)C(=O)C(C)Oc1cc(-c2ccccc2)nc2ccccc12` (stereo not given), 124 °C.
The compound `N#Cc1cccc(-c2ccc(C#N)c(Cn3cncn3)c2)c1` had a melting point of 160 to 161 °C.
Compound `CCCCCCCCCCCCCCOCC(CCC(=O)N(C)C)(CCC(=O)N(C)C)COCCCCCCCCCCCCCC` gave a melting point of 47 to 49 °C.
With `COc1ccc(-c2nnn(Cc3ccc(Cl)cc3Cl)c2N)cc1` the figure was 156 to 159 °C; with `N#Cc1c(C(F)(F)F)[nH]c2cc(Cl)c(Cl)cc12`, greater than 260 °C.
On to `CNC(=O)[C@H]1CN(c2ccc3c(c2)oc(=O)n3C(C)C)C(=O)O1`, for which the melting point is 216 to 218 °C.
With `CCOC(=O)c1ccc2c(c1)Cc1ccc(C(=O)OCC)cc1O2` the figure was 156 to 158 °C; with `CCON=Cc1cc(-n2c(=O)cc(C(F)(F)F)n(C)c2=O)c(Cl)cc1Cl`, 140 to 143 °C.
Compound `CNc1ccc(F)c(C#N)c1` came in with a melting point of 64 to 65 °C.
With `Nc1nc2c(c(=O)[nH]1)n(CC(=O)O)c(=O)n2C1OC(CO)C(O)C1O` (stereo not given) the figure was greater than 230 °C; with `CCCCCCCCc1cnc(-c2ccc(OC)c(F)c2)nc1`, 58.7 to 59 °C.
The compound `CC(CCNC1=Nc2cccc3cccc1c23)c1ccncc1` (stereo not given) came in with a melting point of 220 to 221 °C.
On to `CCCN(CCC)c1ccc(NC(=O)N(C[C@H]2CC[C@H](CN(C(=O)Nc3ccc(N(CCC)CCC)cc3)C3CCCCC3)CC2)C2CCCCC2)cc1`, for which the melting point fell in the range of 147 to 150 °C.
Under `CCn1c2ccc(C(C)=O)cc2c2cc(C(C)=O)ccc21` stands 184 to 190 °C; under `COC(=O)COc1c2c(cc3c1c1c(C(N)=O)cccc1n3Cc1ccccc1)CCCC2`, 174 to 177 °C.
Under `CC(=O)Nc1nc2c(Oc3cc(-c4ccc(C(F)(F)F)cc4NC(=O)C4CCCCN4CC4CC4)ncn3)cccc2s1` (stereo not given) stands 212 to 214 °C; under `COCOCc1nc(-c2ccccc2)oc1CCc1ccc(OCc2nc(-c3ccccc3)oc2C)cc1`, 124 to 125 °C.

For orientation: melting point means the temperature, or range, at which the solid turns liquid.
